We go through 3 compounds from US20170136102A1, “PHAGE-DERIVED COMPOSITIONS FOR IMPROVED MYC[…]” (priority 2014, published 2017).

Molecules are shown by their SMILES. ≈ marks a conversion by molar mass, not a printed value. Like-named read-outs stand apart in the source and are kept apart here. Some results are limits rather than exact numbers.

Common to all, as to type: cell-based
In test [1] the test system is M. smegmatis. The test is described as follows: Broth checkerboard MIC, synergy of LysB with anti-TB drugs. To be noted: for MIC: Mycolicibacterium smegmatis.
Test [2] relates to M. bovis BCG. Put plainly: microbe, parasite or virus in culture. To be noted: for FIC index: M. bovis BCG (Dubos), drug in combination with LysB, <0.5 indicates synergy; for MIC: Mycobacterium tuberculosis variant bovis BCG, BCG.
In test [3] the test system is M. smegmatis.

Turning to `CO[C@H]1/C=C/O[C@@]2(C)Oc3c(C)c(O)c4c(O)c(c(/C=N/N5CCN(C)CC5)c(O)c4c3C2=O)NC(=O)/C(C)=C\C=C\[C@H](C)[C@H](O)[C@@H](C)[C@@H](O)[C@@H](C)[C@H](OC(C)=O)[C@@H]1C` [Rifampicin], in test [1], the FIC index stood at 0.06 and the MIC came out at 4 µg/mL. In test [2], the FIC index is 0.37 and the MIC was determined as 0.004 µg/mL (≈ 0.00486 µM). In addition, the “Log10 CFU reduction” value in test [3] was less than 1 Log10 CFU.
Take `CC[C@@H](CO)NCCN[C@@H](CC)CO` [Ethambutol]: the FIC index in test [1] was found to be 0.06; in test [2] it was 0.15. Also, the figures for the MIC in test [1] and in test [2] were 2 µg/mL and 16 µg/mL (≈ 78.3 µM), respectively. Besides, the “Log10 CFU reduction” value in test [3] (M. smegmatis, 24 hrs, Ethambutol group) is listed as less than 1 Log10 CFU.
For the compound `NNC(=O)c1ccncc1` [INH, Isoniazid], in test [1], the FIC index is 0.13 and the MIC stood at 8 µg/mL. Moreover, in test [2], the FIC index was 0.47 and the MIC was found to be 0.03 µg/mL (≈ 0.219 µM). Moreover, in test [3] (M. smegmatis, 24 hrs, INH group), the “Log10 CFU reduction” value is reported as less than 1 Log10 CFU.
